# In patent US12280052B2, “Compositions and methods for the treatment of adenomyosis and rectovaginal endometriosis” (ObsEva S.A., priority 2018, dated 2025):
# What was measured:
# human GnRH receptor = target: T1, human GnRH receptor (Homo sapiens, UniProt P30968); test: affinity for human GnRH receptor; type: binding; conditions: kind of constant not stated
# T1 sequence (P30968 1-328): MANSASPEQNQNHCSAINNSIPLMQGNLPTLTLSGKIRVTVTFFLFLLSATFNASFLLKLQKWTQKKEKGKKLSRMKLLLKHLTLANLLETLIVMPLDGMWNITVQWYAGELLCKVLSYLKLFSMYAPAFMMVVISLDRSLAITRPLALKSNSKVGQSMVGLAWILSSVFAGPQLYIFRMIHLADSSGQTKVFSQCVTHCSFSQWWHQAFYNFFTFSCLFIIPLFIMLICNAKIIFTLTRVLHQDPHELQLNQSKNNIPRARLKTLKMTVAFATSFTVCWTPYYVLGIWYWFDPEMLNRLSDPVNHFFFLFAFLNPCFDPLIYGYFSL
# [1] = test system: human female patients suffering from adenomyosis; test: open-label Phase II clinical trial of compound (VI) in adenomyosis, representative patient; type: in vivo; conditions: for mB&B score: composite score 0-15, baseline 6.0 (Severe); for mB&B score / Change from baseline in EHP-30 score for control and powerlessness / Change from baseline in EHP-30 score for emotional well-being / Change from baseline in EHP-30 score for pain / Change from baseline in EHP-30 score for self-image / Change from baseline in EHP-30 score for social support / Change from baseline in global pelvic pain by NRS / Change from baseline in mB&B score / Change from baseline in uterine volume by MRI / Change from baseline in uterine volume by TVUS / Uterus height by TVUS / Uterus depth by TVUS / Uterus length by TVUS / mB&B score, severity class / EHP-30 Score: Pain (Questions 1-11 of EHP-30) / EHP-30 Score: Social Support (Questions 24-27 of EHP-30) / EHP-30 Score: Self-Image (Questions 28-30 of EHP-30) / EHP-30 Score: Emotional Well-being (Questions 18-23 of EHP-30) / EHP-30 Score: Control and Powerlessness (Questions 12-17 of EHP-30) / Global pelvic pain by numerical rating scale (NRS) / Patient Global Impression of Change since Baseline (PGIC) / Uterus volume by transvaginal ultrasound (TVUS) / Uterus volume by MRI: representative patient; for Uterus height by TVUS: baseline 5.6 cm; for Uterus depth by TVUS: baseline 6.5 cm; for Uterus length by TVUS: baseline 6.7 cm; for mB&B score, severity class: baseline Severe; for EHP-30 Score: Pain (Questions 1-11 of EHP-30): scale 0 (best) to 100 (worst health status), baseline 63.6; for EHP-30 Score: Social Support (Questions 24-27 of EHP-30) / EHP-30 Score: Self-Image (Questions 28-30 of EHP-30) / EHP-30 Score: Emotional Well-being (Questions 18-23 of EHP-30) / EHP-30 Score: Control and Powerlessness (Questions 12-17 of EHP-30): scale 0 (best) to 100 (worst); for EHP-30 Score: Social Support (Questions 24-27 of EHP-30): baseline 43.8; for EHP-30 Score: Self-Image (Questions 28-30 of EHP-30): baseline 50.0; for EHP-30 Score: Emotional Well-being (Questions 18-23 of EHP-30): baseline 66.7; for EHP-30 Score: Control and Powerlessness (Questions 12-17 of EHP-30): baseline 70.8; for Global pelvic pain by numerical rating scale (NRS): scale 0 (no pain) to 10 (worst pain imaginable), baseline 7; for Patient Global Impression of Change since Baseline (PGIC): scale 1 (Very much improved) to 7 (very much worse); for Uterus volume by transvaginal ultrasound (TVUS): volume = l × h × d × 0.523, baseline 128 cm^3; for Uterus volume by MRI: baseline 198
# Description: This example describes the results of an open-label, Phase II clinical trial examining the safety and efficacy of the GnRH antagonist, compound (VI) (3-[2-fluoro-5-(2,3-difluoro-6-methoxybenzyloxy)4-methoxyphenyl]-2,4-dioxo-1,2,3,4-tetrahydrothieno [3,4d]pyrimidine-5-carboxylic acid), for treating human female patients suffering from adenomyosis. The study began with a 4-week patient screening period, followed by two consecutive 12-week treatment periods. During the first 12-week treatment period, patients were administered compound (VI) in a single daily dose of 200 mg. During the second 12-week treatment period, patients were administered compound (VI) in a single daily dose of 100 mg. Patients then entered a post-treatment follow-up period during which the effects of compound (VI) were further assessed.
# The total duration of this study (from the screening visit to the end-of-study visit) was 40 weeks per subject. The study began with a 4-week screening period evaluating the symptoms of uterine adenomyosis and assessing the volume of each patient's adenomyosis-affected uterus by way of MRI. During this period, the patients received no study drug.
# At the start of menstruation, the patients were administered 200 mg of compound (VI), once daily, in the form of the corresponding choline salt. The administration continued over the course of a 12-weel treatment period, referred to as the “initiation phase,” so as to maximize the effect of the treatment. After the first 12-week treatment period, the therapeutic effect of the GnRH antagonist was maintained by administering 100 mg of compound (VI), once daily, over the course of a second 12-week treatment period. This second treatment period was referred to as the “maintenance phase.”
# At the end of the maintenance phase (at week 24), the patients entered a 12-week follow-up period without any active treatment.
# The primary efficacy endpoint of this study was a change, from baseline to week 24, in volume of the adenomyosis-affected uterus, as measured by MRI. Secondary endpoints under investigation in this study were as follows: • Change from baseline to weeks 12 and 36 in volume of the uterus with adenomyosis measured by MRI • Change from baseline to weeks 12, 24 and 36 in volume of the uterus with adenomyosis measured by TVUS • Change from baseline to weeks 12, 24 and 36 in the largest thickness of the anterior and posterior part of the uterus myometrium (sagittal assessment) • Change from baseline to weeks 12, 24 and 36 in the largest diameter of the junctional zone of the uterine adenomyosis measured by MRI • Presence of blood spots on the MRI images • Change from baseline to weeks 12, 24 and 36 in uterus volume assessed at vaginal examination • Change from baseline to weeks 12, 24 and 36 in uterine tenderness assessed at vaginal examination • Change from baseline to weeks 12, 24 and 36 in dysmenorrhea, pelvic pain and dyspareunia according to the mB&B scale • Change from baseline to weeks 4, 8, 12, 16, 20, 24 and 36 for global pelvic pain assessed over the preceding 4-week period using a Numerical Rating Scale (NRS) with a monthly recall • Change from baseline to weeks 4, 8, 12, 16, 20, 24, 28, 32 and 36 in the mean monthly dyspareunia score defined as the mean of available daily dyspareunia scores over the preceding 4-week period assessed on the Verbal Rating Scale (VRS) dyspareunia scale and on a NRS • Change from baseline to weeks 4, 8, 12, 16, 20 and 24 fin the mean monthly dyschezia score defined as the mean of weekly dyschezia scores over the preceding 4-week period using a NRS • No uterine bleeding (or spotting only), during the 4-week period preceding weeks 4, 8, 12, 16, 20 and 24 using a simplified bleeding scale • Time to amenorrhea • Change from baseline to weeks 12, 24 and 36 in the Endometriosis Health Profile questionnaire (EHP-30) • Patient Global Impression of Change (PGIC) score at weeks 12, 24 and 36 Data Analysis and Statistics […]
# [2] = week 24 (100 mg once daily after 12 weeks of 200 mg)
structure (smiles),measurement,setting,value
"COc1cc(F)c(-n2c(=O)[nH]c3csc(C(=O)O)c3c2=O)cc1OCc1c(OC)ccc(F)c1F [Compound (VI), 3-[2-fluoro-5-(2,3-difluoro-6-methoxybenzyloxy)4-methoxyphenyl]-2,4-dioxo-1,2,3,4-tetrahydrothieno [3,4d]pyrimidine-5-carboxylic acid]",affinity for human GnRH receptor,human GnRH receptor,27.4 nM
same,"uterine volume, conclusion in words","[1]; 24 weeks of treatment, 200 mg then 100 mg once daily",sustained reduction in uterine volume
same,"adenomyosis-associated pain, conclusion in words","[1]; 24 weeks of treatment, 200 mg then 100 mg once daily, various metrics",substantial reduction in adenomyosis-associated pain
same,mB&B score,[1]; week 12 (200 mg once daily),2.0
same,Change from baseline in EHP-30 score for control and powerlessness,[1]; week 12 (200 mg once daily),−70.8
same,Change from baseline in EHP-30 score for emotional well-being,[1]; week 12 (200 mg once daily),−66.7
same,Change from baseline in EHP-30 score for pain,[1]; week 12 (200 mg once daily),−63.6
same,Change from baseline in EHP-30 score for self-image,[1]; week 12 (200 mg once daily),−50.0
same,Change from baseline in EHP-30 score for social support,[1]; week 12 (200 mg once daily),−43.8
same,Change from baseline in global pelvic pain by NRS,[1]; week 12 (200 mg once daily),−7
same,Change from baseline in mB&B score,[1]; week 12 (200 mg once daily),−4
same,Change from baseline in uterine volume by MRI,[1]; week 12 (200 mg once daily),−114 cm^3
same,Change from baseline in uterine volume by TVUS,[1]; week 12 (200 mg once daily),−79 cm^3
same,Uterus height by TVUS,[1]; week 12 (200 mg once daily),4.1 cm
same,Uterus depth by TVUS,[1]; week 12 (200 mg once daily),5.0 cm
same,Uterus length by TVUS,[1]; week 12 (200 mg once daily),4.5 cm
same,"mB&B score, severity class",[1]; week 12 (200 mg once daily),Mild (Mild (1-2))
same,EHP-30 Score: Pain (Questions 1-11 of EHP-30),[1]; week 12 (200 mg once daily),0.0
same,EHP-30 Score: Social Support (Questions 24-27 of EHP-30),[1]; week 12 (200 mg once daily),0
same,EHP-30 Score: Self-Image (Questions 28-30 of EHP-30),[1]; week 12 (200 mg once daily),0
same,EHP-30 Score: Emotional Well-being (Questions 18-23 of EHP-30),[1]; week 12 (200 mg once daily),0
same,EHP-30 Score: Control and Powerlessness (Questions 12-17 of EHP-30),[1]; week 12 (200 mg once daily),0
same,Global pelvic pain by numerical rating scale (NRS),[1]; week 12 (200 mg once daily),0
same,Patient Global Impression of Change since Baseline (PGIC),[1]; week 12 (200 mg once daily),1—Very
same,Uterus volume by transvaginal ultrasound (TVUS),[1]; week 12 (200 mg once daily),48 cm^3
same,Uterus volume by MRI,"[1]; week 12 (end of initiation phase, 200 mg once daily as choline salt)",84 cm^3
same,mB&B score,[1]; [2],2.0
same,Change from baseline in EHP-30 score for control and powerlessness,[1]; [2],−70.8
same,Change from baseline in EHP-30 score for emotional well-being,[1]; [2],−66.7
same,Change from baseline in EHP-30 score for pain,[1]; [2],−56.8
same,Change from baseline in EHP-30 score for self-image,[1]; [2],−50.0
same,Change from baseline in EHP-30 score for social support,[1]; [2],−43.8
same,Change from baseline in global pelvic pain by NRS,[1]; [2],−6
same,Change from baseline in mB&B score,[1]; [2],−4
same,Change from baseline in uterine volume by MRI,[1]; [2],−123 cm^3
same,Change from baseline in uterine volume by TVUS,[1]; [2],−79 cm^3
same,Uterus height by TVUS,[1]; [2],4.0 cm
same,Uterus depth by TVUS,[1]; [2],5.0 cm
same,Uterus length by TVUS,[1]; [2],4.6 cm
same,"mB&B score, severity class",[1]; [2],Mild (Mild (1-2))
same,EHP-30 Score: Pain (Questions 1-11 of EHP-30),[1]; [2],6.8
same,EHP-30 Score: Social Support (Questions 24-27 of EHP-30),[1]; [2],0
same,EHP-30 Score: Self-Image (Questions 28-30 of EHP-30),[1]; [2],0
same,EHP-30 Score: Emotional Well-being (Questions 18-23 of EHP-30),[1]; [2],0
same,EHP-30 Score: Control and Powerlessness (Questions 12-17 of EHP-30),[1]; [2],0
same,Global pelvic pain by numerical rating scale (NRS),[1]; [2],1
same,Patient Global Impression of Change since Baseline (PGIC),[1]; [2],1—Very
same,Uterus volume by transvaginal ultrasound (TVUS),[1]; [2],48 cm^3
same,Uterus volume by MRI,"[1]; week 24 (end of maintenance phase, 100 mg once daily after 12 weeks of 200 mg)",75 cm^3
